Read-outs that look alike come from different tables or passages of the source.
Columns and labels:
[1] = system: Alternaria solani; test: In vivo preventive test on Alternaria (tomatoes)
Protocol: The plants are then placed in an incubation cabinet at approximately 20° C. and a relative atmospheric humidity of 100%.
The test is evaluated 3 days after the inoculation.

[2] = system: Phakopsora pachyrhizi; test: In vivo preventive test on Phakopsora (soybeans); conditions: Table C2, 7 days after inoculation
[3] = LogP by HPLC on reversed phase columns (EEC directive 79/831 Annex V.A8); conditions: for LogP [a] / LogP [b]: LC-UV; for LogP [a]: acidic range, 0.1% formic acid in water and acetonitrile; for LogP [b]: neutral range, 0.001 molar ammonium acetate in water and acetonitrile
Protocol: Measurement of LogP values was performed according to EEC directive 79/831 Annex V.A8 by HPLC (High Performance Liquid Chromatography) on reversed phase columns with the following methods:
Lambda-max-values were determined using UV-spectra from 200 nm to 400 nm and the peak values of the chromatographic signals.

[4] = Alternaria solani, 72 h, read-out: Efficacy in % found

Structure (SMILES)	LogP [a] ([3]; Table 1, formula (I))	LogP [a] ([3]; Table 2, formula (V))	further results
CC(C)C1CCC(Cc2ccc(Cl)cc2)C1(O)Cn1cncn1 (centres unmarked) [1.012 ipconazole, ipconazole]	–	–	Efficacy in % found ([1]; Table A1, 2.5 ppm a.i., 3 days after inoculation): 28%; Efficacy in % found ([1]; Table A1, 5 ppm a.i., 3 days after inoculation): 67%; Efficacy in % found ([1]; Table A1, 10 ppm a.i., 3 days after inoculation): 88%
Cn1cc(C(=O)Nc2ccc(F)cc2-c2ccc(Cl)c(Cl)c2)c(C(F)F)n1 [2.002 bixafen, bixafen]	–	–	Efficacy in % found ([2]; 2.5 ppm a.i.): 0%; Efficacy in % found ([2]; 5 ppm a.i.): 0%; Efficacy in % found ([2]; 10 ppm a.i.): 15%
O=C(NCCc1ncc(C(F)(F)F)cc1Cl)c1ccccc1C(F)(F)F [2.005 fluopyram, fluopyram]	–	–	pest or weed control at 5 ppm ([1]; Alternaria solani, 72 h, Table A2, 5 ppm a.i., 3 days after inoculation, read-out: Efficacy in % found): 53%; pest or weed control at 10 ppm ([1]; Alternaria solani, 72 h, Table A2, 10 ppm a.i., 3 days after inoculation, read-out: Efficacy in % found): 61%; pest or weed control at 20 ppm ([1]; Alternaria solani, 72 h, Table A2, 20 ppm a.i., 3 days after inoculation, read-out: Efficacy in % found): 84%
Cc1nn(C)c(F)c1C(=O)Nc1ccccc1C(C)CC(C)C (centres unmarked) [2.017 penflufen, penflufen]	–	–	Efficacy in % found ([1]; Table A2, 5 ppm a.i., 3 days after inoculation): 11%; Efficacy in % found ([1]; Table A2, 10 ppm a.i., 3 days after inoculation): 26%; Efficacy in % found ([1]; Table A2, 20 ppm a.i., 3 days after inoculation): 47%; Efficacy in % found ([2]; 5 ppm a.i.): 8%; Efficacy in % found ([2]; 10 ppm a.i.): 43%; Efficacy in % found ([2]; 20 ppm a.i.): 83%
CON=C(C(=O)OC)c1ccccc1CON=C(C)c1cccc(C(F)(F)F)c1 [3.020 trifloxystrobin, trifloxystrobin]	–	–	pest or weed control at 1 ppm ([1]; Alternaria solani, 72 h, Table A2, 1 ppm a.i., 3 days after inoculation, read-out: Efficacy in % found): 24%; pest or weed control at 2 ppm ([1]; Alternaria solani, 72 h, Table A2, 2 ppm a.i., 3 days after inoculation, read-out: Efficacy in % found): 42%; pest or weed control at 4 ppm ([1]; Alternaria solani, 72 h, Table A2, 4 ppm a.i., 3 days after inoculation, read-out: Efficacy in % found): 53%
N#Cc1c[nH]cc1-c1cccc2c1OC(F)(F)O2 [13.001 fludioxonil, fludioxonil]	–	–	pest or weed control at 5 ppm [1, 4]: 77%; pest or weed control at 10 ppm [1, 4]: 85%; pest or weed control at 20 ppm [1, 4]: 95%
CC(O)(Cn1cncn1)c1ccc(Oc2ccc(Cl)cc2F)nc1C(F)(F)F (centres unmarked) [I.66]	2.80^[a]	–	–
CC(O)(Cn1cncn1)c1ccc(Oc2ccc(Cl)cc2)nc1C(F)(F)F (centres unmarked) [I.67]	2.68^[a]	–	–
OC(Cn1cncn1)c1cnc(Oc2ccc(Cl)cc2)cc1Cl (centres unmarked) [I.68]	2.48^[a]	–	–
C=CC(O)(Cn1cncn1)c1cnc(Oc2ccc(C(F)(F)F)cc2)cc1C(F)(F)F (centres unmarked) [I.69]	3.33^[a]	–	–
OC(Cn1cncn1)c1ccc(Oc2ccc(Cl)cc2F)nc1C(F)(F)F (centres unmarked) [I.70]	2.78^[a]	–	–
OC(Cn1cncn1)(c1ccc(Oc2ccc(Cl)cc2)nc1C(F)(F)F)C1CC1 (centres unmarked) [I.71]	3.35^[a]	–	–
OC(Cn1cncn1)c1ccc(Oc2ccc(Br)cc2)nc1C(F)F (centres unmarked) [I.73]	2.50^[a]	–	–
OC(Cn1cncn1)c1ccc(Oc2ccc(C(F)F)cc2)nc1C(F)(F)F (centres unmarked) [I.74]	2.49^[a]	–	–
CC(C)c1ccc(Oc2ccc(C(C)(O)Cn3cncn3)c(C(F)(F)F)n2)cc1 (centres unmarked) [I.75]	3.35^[a]	–	–
CCC(O)(Cn1cncn1)c1cnc(Oc2ccc(C(F)(F)F)cc2)cc1C(F)(F)F (centres unmarked) [I.76]	3.52^[a]	–	–
CC(O)(Cn1cncn1)c1ccc(Oc2ccc(F)cc2)nc1Oc1ccc(F)cc1 (centres unmarked) [I.77]	3.13^[a]	–	–
CC(O)(Cn1cncn1)c1cnc(Oc2ccc(C(F)(F)F)cc2)cc1Cl (centres unmarked) [I.78]	2.88^[a]	–	–
OC(Cn1cncn1)c1ccc(Oc2ccc(OC(F)(F)F)cc2)nc1C(F)(F)F (centres unmarked) [I.79]	2.89^[a]	–	–
OC(Cn1cncn1)(c1ccc(Oc2ccc(Cl)cc2)nc1C(F)(F)F)C1CC1 (centres unmarked) [I.80]	3.32^[a]	–	–
OC(Cn1cncn1)(c1ccc(Oc2ccc(Br)cc2)nc1C(F)(F)F)C1CC1 (centres unmarked) [I.81, 1-[6-(4-bromophenoxy)-2-(trifluoromethyl)pyridin-3-yl]-1-cyclopropyl-2-(1H-1,2,4-triazol-1-yl)ethanol]	–	–	chromatographic logP ([3]; reversed-phase HPLC column): 3.7

Structure (SMILES)	LogP [a] ([3]; Table 1, formula (I))	LogP [a] ([3]; Table 2, formula (V))	further results
CC(O)(Cn1cncn1)c1cnc(Oc2ccc(Br)cc2)cc1C(F)F (centres unmarked) [I.82]	2.78^[a]	–	–
OC(Cn1cncn1)(c1ccc(Oc2ccc(Br)cc2)nc1C(F)(F)F)C(F)(F)F (centres unmarked) [I.85]	3.48^[a]	–	–
OC(Cn1cncn1)(c1ccc(Oc2ccc(C(F)(F)F)cc2)nc1C(F)(F)F)C1CC1 (centres unmarked) [I.87]	3.57^[a]	–	–
OC(Cn1cncn1)c1cnc(Oc2ccc(C(F)(F)F)cc2)cc1Cl (centres unmarked) [I.88]	2.64^[a]	–	–
CC(O)(Cn1cncn1)c1ccc(Oc2ccc(Cl)cc2F)nc1C(F)(F)F (centres unmarked) [I.89]	3.15^[a]	–	–
OC(Cn1cncn1)c1ccc(Oc2ccc(Cl)cc2F)nc1C(F)(F)F (centres unmarked) [I.90]	2.88^[a]	–	–
OC(Cn1cncn1)(c1ccc(Oc2ccc(C(F)F)cc2)nc1C(F)(F)F)C1CC1 (centres unmarked) [I.93]	3.13^[a]	–	–
OC(Cn1cncn1)c1cnc(Oc2ccc(Cl)cc2)cc1C(F)F (centres unmarked) [I.94]	2.13^[a]	–	–
FC(F)(F)c1nc(Oc2ccc(S(F)(F)(F)(F)F)cc2)ccc1C1(C2CC2)CO1 (centres unmarked) [IX.09]	–	–	LogP [a] ([3]; Table 5, formula (IX)): 5.22^[a]
CC(=O)c1cnc(Oc2ccc(S(F)(F)(F)(F)F)cc2)cc1C(F)(F)F [V.03]	–	4.32^[a]	–
CC(=O)c1cnc(Oc2ccc(C(F)F)cc2)cc1C(F)(F)F [V.04]	–	3.62^[a]	–
CC(=O)c1ccc(Oc2ccc(Cl)cc2)nc1C(F)F [V.05]	–	3.35^[a]	–
CC(=O)c1ccc(Oc2ccc(Cl)cc2)nc1OC(F)(F)F [V.06]	–	4.37^[a]	–
CC(=O)c1cnc(Oc2ccc(Cl)cc2F)cc1C(F)(F)F [V.07]	–	4.09^[a]	–
CC(=O)c1cnc(Oc2ccccc2)cc1Cl [V.08]	–	2.94	LogP [b] ([3]; Table 2, formula (V)): 2.86
CC(=O)c1cnc(Oc2ccc(Cl)cc2)cc1Cl [V.09]	–	3.52	LogP [b] ([3]; Table 2, formula (V)): 3.42
CC(=O)c1ccc(Oc2ccc(Cl)cc2)nc1Cl [V.10]	–	3.47	LogP [b] ([3]; Table 2, formula (V)): 3.36
CC(=O)c1ccc(Oc2ccc(Cl)c(Cl)c2)nc1Cl [V.11]	–	4.10^[a]	–
CC(=O)c1ccc(Oc2ccc(F)cc2)nc1Cl [V.12]	–	3.11^[a]	–
CC(=O)c1ccc(Oc2ccc(C(F)F)cc2)nc1Cl [V.14]	–	3.15^[a]	–
CC(=O)c1cnc(Oc2ccc(OC(F)(F)F)cc2)cc1C(F)(F)F [V.15]	–	4.20^[a]	–

Structure (SMILES)	LogP [a] ([3]; Table 1, formula (I))	LogP [a] ([3]; Table 2, formula (V))	further results
CC(=O)c1ccc(Oc2ccc(S(F)(F)(F)(F)F)cc2)nc1C(F)(F)F [V.16]	–	4.09^[a]	–
CC(=O)c1ccc(Oc2ccc(C(F)(F)F)cc2)nc1C(F)(F)F [V.17]	–	3.96^[a]	–
CC(=O)c1cnc(Oc2ccc(C(F)(F)F)cc2)cc1Cl [V.18]	–	3.87^[a]	–
CC(=O)c1cnc(Oc2ccc(Cl)cc2)cc1C(C)=O [V.19]	–	3.11^[a]	–
CC(=O)c1ccc(Oc2ccc(Br)cc2)nc1C(F)(F)F [V.20]	–	3.85^[a]	–
CC(=O)c1ccc(Oc2ccccc2)nc1Cl [V.21]	–	2.94	LogP [b] ([3]; Table 2, formula (V)): 2.85
CC(=O)c1cnc(Oc2ccc(Cl)cc2)cc1Cl [V.22]	–	3.51^[a]	–
CC(=O)c1ccc(Oc2ccc(Cl)cc2)nc1F [V.24]	–	3.51^[a]	–
CC(=O)c1cnc(Oc2ccc(C(F)(F)F)cc2)cc1C(F)(F)F [V.25]	–	4.04^[a]	–
CC(=O)c1ccc(Oc2ccc(Cl)cc2)nc1Cl [V.26]	–	3.45^[a]	–
CC(=O)c1cnc(Oc2ccc(Br)cc2)cc1C(F)(F)F [V.27]	–	3.99^[a]	–
CC(=O)c1ccc(Oc2ccc(OC(F)(F)F)cc2)nc1Cl [V.28]	–	3.89^[a]	–
COc1ccc(Oc2ccc(C(C)=O)c(Cl)n2)c(Cl)c1 [V.29]	–	3.44^[a]	–
CC(=O)c1ccc(Oc2ccc(S(F)(F)(F)(F)F)cc2)nc1Cl [V.30]	–	3.99^[a]	–
CC(=O)c1ccc(Oc2c(F)cc(Cl)cc2F)nc1C(F)(F)F [V.31]	–	4.06^[a]	–
CC(=O)c1ccc(Oc2ccc(C(F)F)cc2)nc1C(F)(F)F [V.32]	–	3.26^[a]	–
O=C(c1ccc(Oc2ccc(C(F)(F)F)cc2)nc1C(F)(F)F)C1CC1 [V.39]	–	4.37^[a]	–
O=Cc1ccc(Oc2ccc(C(=O)C3CC3)c(C(F)(F)F)n2)cc1 [V.42]	–	3.21^[a]	–
O=C(c1ccc(Oc2ccc(S(F)(F)(F)(F)F)cc2)nc1C(F)(F)F)C1CC1 [V.43]	–	4.67^[a]	–
